Legend:
[1] = Next Generation Impactor (NGI) studies, aerodynamic particle size distribution emitted from MDI; format: physicochemical; conditions: HFA-152a; for FPM (fine particle mass, particle size less than 5 micrometers, per actuation) / ISM (impactor sized mass, Cups 2-7, MOC and filter, per actuation) / MMAD (mass median aerodynamic diameter) / Throat hold up (throat assembly content divided by total ex-actuator content): Example 1 MDI: 0.1744% FF, 0.0698% vilanterol trifenatate, mean of three MDIs; for FPM (fine particle mass, particle size less than 5 micrometers, per actuation) / ISM (impactor sized mass, Cups 2-7, MOC and filter, per actuation) / MMAD (mass median aerodynamic diameter): 30 L/minute; for Throat hold up (throat assembly content divided by total ex-actuator content): Emmace anatomical throat
Description: The aerodynamic particle size distribution emitted from each MDI was evaluated using a Next Generation Impactor Instrument (MSP Corporation, Shoreview, MN). For each test, an MDI was attached to the throat component (Emmace anatomical throat, Emmace Consulting, Lund, Sweden) of the NGI instrument and actuated 6 times into the instrument. Prior to each actuation the MDI was vigorously shaken. Immediately prior to attachment, the MDI was primed by actuating 4 times. Prior to each priming shot the MDI was vigorously shaken. The flow rate through the instrument during testing was regulated at 30 L/minute. The test sample (fluticasone furoate and vilanterol trifenatate) deposited on the valve stem, actuator, throat assembly (Emmace anatomical throat), individual uncoated collection cups 1-7, micro-orifice collector (MOC), and final filter component was collected by rinsing each individual component with a known volume of collection solvent. The recovered samples were then analyzed for sample content using an HPLC assay with reference to a known standard. An HPLC instrument with a UV detector (220 nm at 0 minutes, 240 nm at 5 minutes) and a symmetry shield RP-18, 4.6-150 mm column (25° C. column temp) was used. The mobile phase was 10 mM SDS, 60:40 (v/v) acetonitrile:50 mM NH4OAc, pH 5.5). The injection volume was 50 microliters and the flow rate was 1.0 mL/min.
Throat hold up was determined as the ratio of the sample content from the throat assembly divided by the total ex-actuator content.
Fine particle mass (FPM) was calculated using CITDAS (Copley Inhaler Testing Data Analysis Software, from Copley Scientific, Nottingham, UK) as the sum of sample content with a particle size less than 5 micrometers (um), reported as micrograms per actuation (mcg/act).
Median mass aerodynamic diameter (MMAD) was calculated using CITDAS (Copley Inhaler Testing Data Analysis Software).
Impactor sized mass (ISM) was determined as the sum of the sample content determined for Cups 2-7, the MOC and the filter, reported as micrograms per actuation (mcg/act).

[2] = Delivered dose study (start of unit life, unit spray collection apparatus, HPLC assay); format: physicochemical; conditions: Example 1 MDI: 0.1744% fluticasone furoate, 0.0698% vilanterol trifenatate, 99.7558% HFA-152a; coated 63 microliter valve; 28.3 L/min
Description: The start of unit life delivered dose was determined using standard unit spray collection apparatus (USCA) fitted with a filter. For each determination, an MDI was attached to the USCA using a coupler and actuated a single time. Immediately prior to attachment, the MDI was vigorously shaken. Prior to collection of the test sample, the MDI was primed by actuating four times. Prior to each priming shot the MDI was vigorously shaken. The flow rate through the equipment was regulated to 28.3 L/min+/−0.5 L/min. The test sample deposited in the USCA was collected by rinsing with a known volume of collection solvent. The recovered samples were then analyzed for sample content using an HPLC assay with reference to a known standard. An HPLC instrument with a UV detector (220 nm at 0 minutes, 240 nm at 5 minutes) and a symmetry shield RP18, 150 mm×4.6 mm (3.5 μm) column (temperature 25° C.) was used. The mobile phase was 10 mM SDS (sodium dodecyl sulphate), 60:40 (v/v) acetetonitrile:50 mM NH4OAc (ammonium acetate), pH 5.50. The injection volume was 50 μl and the flow rate was 1.0 mL/min.

[3] = Example 2 MDI: 0.8791 wt. % fluticasone furoate, 0.1758 wt. % vilanterol trifenatate, coated 25 microliter valve
[4] = Example 3 MDI: 0.4396 wt. % fluticasone furoate, 0.0879 wt. % vilanterol trifenatate, 50 microliter valve
[5] = Example 4 MDI: 0.3489 wt. % fluticasone furoate, 0.0698 wt. % vilanterol trifenatate, 63 microliter valve
[6] = Example 5 MDI: 0.2198 wt. % fluticasone furoate, 0.0440 wt. % vilanterol trifenatate, uncoated 100 microliter valve
[7] = Example 6 MDI: 0.4396 wt. % fluticasone furoate, 0.1758 wt. % vilanterol trifenatate, coated 25 microliter valve
[8] = Example 7 MDI: 0.2198 wt. % fluticasone furoate, 0.0879 wt. % vilanterol trifenatate, 50 microliter valve
[9] = Example 8 MDI: 0.1744 wt. % fluticasone furoate, 0.0698 wt. % vilanterol trifenatate, 63 microliter valve
[10] = Example 9 MDI: 0.1099 wt. % fluticasone furoate, 0.0440 wt. % vilanterol trifenatate, uncoated 100 microliter valve

Structure (SMILES) | FPM (fine particle mass, particle size less than 5 micrometers, per actuation) ([1]; 63 microliter valve) | ISM (impactor sized mass, Cups 2-7, MOC and filter, per actuation) ([1]; 63 microliter valve) | MMAD (mass median aerodynamic diameter) ([1]; 63 microliter valve) | Throat hold up (throat assembly content divided by total ex-actuator content) ([1]; 63 microliter valve) | calculated FPM [1, 3] | calculated MMAD [1, 3] | calculated FPM [1, 4] | calculated MMAD [1, 4] | calculated FPM [1, 5] | calculated MMAD [1, 5] | calculated FPM [1, 6] | calculated MMAD [1, 6] | calculated FPM [1, 7] | calculated MMAD [1, 7] | calculated FPM [1, 8] | calculated MMAD [1, 8] | calculated FPM [1, 9] | calculated MMAD [1, 9] | calculated FPM [1, 10] | calculated MMAD [1, 10] | other results
C[C@@H]1C[C@H]2[C@@H]3C[C@H](F)C4=CC(=O)C=C[C@]4(C)[C@@]3(F)[C@@H](O)C[C@]2(C)[C@@]1(OC(=O)c1ccco1)C(=O)SCF [FF, fluticasone furoate] | 21.6 µg | 29.7 µg | 3.3 um | 70.8% | 104.9 micrograms/actuation | 3.5 micrometers | 69.3 micrograms/actuation | 3.4 micrometers | 55.9 micrograms/actuation | 3.3 micrometers | 45.2 micrograms/actuation | 3.3 micrometers | 41.0 micrograms/actuation | 3.1 micrometers | 26.3 micrograms/actuation | 2.9 micrometers | 23.8 micrograms/actuation | 3.0 micrometers | 19.3 micrograms/actuation | 3.2 micrometers | Start of life dose content uniformity (delivered dose) [2]: 90.9 mcg/actuation
OCc1cc([C@@H](O)CNCCCCCCOCCOCc2c(Cl)cccc2Cl)ccc1O [V, vilanterol] | 9.2 µg | 10.1 µg | 1.9 um | 61.4% | 13.6 micrograms/actuation | 2.6 micrometers | 8.8 micrograms/actuation | 2.7 micrometers | 6.7 micrograms/actuation | 2.3 micrometers | 5.5 micrograms/actuation | 2.5 micrometers | 11.4 micrograms/actuation | 2.1 micrometers | 7.7 micrograms/actuation | 2.2 micrometers | 5.9 micrograms/actuation | 2.3 micrometers | 4.2 micrograms/actuation | 2.6 micrometers | Start of life dose content uniformity (delivered dose) [2]: 23.1 mcg/actuation
